pIC50: −log10 of the molar value.

Chain of (recombinant) catalytic domain of human Bub1 (amino acids 704-1085) (O43683 704-1085): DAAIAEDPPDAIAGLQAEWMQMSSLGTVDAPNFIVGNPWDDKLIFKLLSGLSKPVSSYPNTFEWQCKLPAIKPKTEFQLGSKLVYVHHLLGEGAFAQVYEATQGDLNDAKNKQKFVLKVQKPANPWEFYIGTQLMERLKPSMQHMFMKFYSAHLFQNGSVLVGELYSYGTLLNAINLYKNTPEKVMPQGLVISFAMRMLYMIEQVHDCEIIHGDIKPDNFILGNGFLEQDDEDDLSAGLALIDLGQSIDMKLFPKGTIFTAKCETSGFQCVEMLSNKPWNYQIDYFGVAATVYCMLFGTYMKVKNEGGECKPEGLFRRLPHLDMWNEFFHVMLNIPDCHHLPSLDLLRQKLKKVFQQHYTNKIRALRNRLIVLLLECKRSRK

For this assay, the target named is (recombinant) catalytic domain of human Bub1 (amino acids 704-1085) (Homo sapiens (Human), UniProt O43683). The assay is described as follows: Bub1 kinase assay (TR-FRET). Format: biochemical. The note with it: ATP 10 μM, peptide substrate 1 μM, 60 min at 22° C., read-out: Inhibition of Bub1 kinase IC50. The source says:
Bub1-inhibitory activities of compounds described in the present invention were quantified using a time-resolved fluorescence energy transfer (TR-FRET) kinase assay which measures phosphorylation of the synthetic peptide Biotin-Ahx-VLLPKKSFAEPG (SEQ ID No. 1) (C-terminus in amide form), purchased from e.g. Biosyntan (Berlin, Germany) by the (recombinant) catalytic domain of human Bub1 (amino acids 704-1085), expressed in Hi5 insect cells with an N-terminal His6-tag and purified by affinity-(Ni-NTA) and size exclusion chromatography.
In a typical assay 11 different concentrations of each compound (0.1 nM, 0.33 nM, 1.1 nM, 3.8 nM, 13 nM, 44 nM, 0.15 μM, 0.51 μM, 1.7 μM, 5.9 μM and 20 μM) were tested in duplicate within the same microtiter plate. To this end, 100-fold concentrated compound solutions (in DMSO) were previously prepared by serial dilution (1:3.4) of 2 mM stocks in a clear low volume 384-well source microtiter plate (Greiner Bio-One, Frickenhausen, Germany), from which 50 nl of compounds were transferred into a black low volume test microtiter plate from the same supplier. Subsequently, 2 μL of Bub1 (the final concentration of Bub1 was adjusted depending on the activity of the enzyme lot in order to be within the linear dynamic range of the assay: typically ˜200 ng/mL were used) in aqueous assay buffer [50 mM Tris/HCl pH 7.5, 10 mM magnesium chloride (MgCl2), 200 mM potassium chloride (KCl), 1.0 mM dithiothreitol (DTT), 0.1 mM sodium ortho-vanadate, 1% (v/v) glycerol, 0.01% (w/v) bovine serum albumine (BSA), 0.005% (v/v) Trition X-100 (Sigma), 1× Complete EDTA-free protease inhibitor mixture (Roche)] were added to the compounds in the test plate and the mixture was incubated for 15 min at 22° C. to allow pre-equilibration of the putative enzyme-inhibitor complexes before the start of the kinase reaction, which was initiated by the addition of 3 μL 1.67-fold concentrated solution (in assay buffer) of adenosine-tri-phosphate (ATP, 10 μM final concentration) and peptide substrate (1 μM final concentration). The resulting mixture (5 μL final volume) was incubated at 22° C. during 60 min. and the reaction w as stopped by the addition of 5 μL of an aqueous EDTA-solution (50 mM EDTA, in 100 mM HEPES pH 7.5 and 0.2% (w/v) bovine serum albumin) which also contained the TR-FRET detection reagents (0.2 μM streptavidin-XL665 [Cisbio Bioassays, Codolet, France] and 1 nM anti-phosho-Serine antibody [Merck Millipore, cat. #35-002] and 0.4 nM LANCE EU-W1024 labeled anti-mouse IgG antibody [Perkin-Elmer, product no. AD0077, alternatively a Terbium-cryptate-labeled anti-mouse IgG antibody from Cisbio Bioassays can be used]). The stopped reaction mixture was further incubated 1 h at 22° C. in order to allow the formation of complexes between peptides and detection reagents. Subsequently, the amount of product was evaluated by measurement of the resonance energy transfer from the Eu-chelate-antibody complex recognizing the Phosphoserine residue to the streptavidin-XL665 bound to the biotin moiety of the peptide. To this end, the fluorescence emissions at 620 nm and 665 nm after excitation at 330-350 nm were measured in a TR-FRET plate reader, e.g. a Rubystar or Pherastar (both from BMG Labtechnologies, Offenburg, Germany) or a Viewlux (Perkin-Elmer) and the ratio of the emissions (665 nm/622 nm) was taken as indicator for the amount of phosphorylated substrate. The data were normalised using two sets of control wells for high−(=enzyme reaction without inhibitor=0%=Minimum inhibition) and low−(=all assay components without enzyme=100%=Maximum inhibition) Bub1 activity. IC50 values were calculated by fitting the normalized inhibition data to a 4-parameter logistic equation (Minimum, Maximum, IC50, Hill; Y=Max+(Min−Max)/(1+(X/IC50)Hill)).
Broadly, the pIC50 is −log10 of the IC50, conventionally taken in molar units. “(4aS,5aS or 4aR,5aR)-5a-Methyl-3-(phenylamino)-2-(pyridin-4-yl)-4a,5,5a,6-tetrahydrocyclopropa[f]indol-4(1H)-one [Example 18]”: the pIC50 was 8.22.
As to `COC(=O)Nc1cc(-c2[nH]c3c(c2Nc2ccccc2)C(=O)[C@@H]2C[C@H]3C2(C)C)ccn1` (relative stereo) [Example 7, methyl 4-[rel-(5R,7S)-6,6-Dimethyl-4-oxo-3-(phenylamino)-4,5,6,7-tetrahydro-1H-5,7-methanoindol-2-yl]pyridin-2-ylcarbamate], the pIC50 is 7.17.
Consider `CC(=O)Nc1cc(-c2[nH]c3c(c2Nc2ccccc2)C(=O)CCC(C)C3)ccn1` (racemic) [Example 25, N-{4-[(7RS)-3-Anilino-7-methyl-4-oxo-1,4,5,6,7,8-hexahydrocyclohepta[b]pyrrol-2-yl]pyridin-2-yl}acetamide], for which the pIC50 was 8.15.
As to `CC(=O)Nc1cc(-c2[nH]c3c(c2Nc2ccccc2)C(=O)[C@@H]2C[C@@H]2C3)ccn1` (relative stereo) [Example 15, rel-(4aR,5aR)-N-4-[4-oxo-3-(Phenylamino)-1,4,4a,5,5a,6-hexahydrocyclopropa[f]indol-2-yl]pyridin-2-ylacetamide], the negative-log IC50 (pIC50) is 8.22.
For `CC1(C(=O)Nc2cc(-c3[nH]c4c(c3Nc3ccccc3)C(=O)[C@@H]3C[C@]3(C)C4=O)ccn2)CC1` (relative stereo) [Example 33, N-{4-[rel-(4aR,5aS)-3-Anilino-5a-methyl-4,6-dioxo-1,4,4a,5,5a,6-hexahydrocyclopropa[f]indol-2-yl]pyridin-2-yl}-1-methylcyclopropanecarboxamide], the negative logarithm of the IC50 (pIC50) is 6.96.
With “N-4-[[(7R) or (7S)]-7-Methyl-4-oxo-3-(phenylamino)-1,4,5,6,7,8-hexahydrocyclohepta[b]pyrrol-2-yl]pyridin-2-ylacetamide [Example 39]” the figure was 8.30; with `CC1(C)[C@@H]2C[C@H]1C(=O)c1c2[nH]c(-c2ccnc(NC(=O)C3CC3)c2)c1Nc1ccccc1` (relative stereo) [Example 6, N-4-[rel-(5R,7S)-6,6-Dimethyl-4-oxo-3-(phenylamino)-4,5,6,7-tetrahydro-1H-5,7-methanoindol-2-yl]pyridin-2-ylcyclopropanecarboxamide], 7.20; with `CC1(C)[C@@H]2C[C@H]1C(=O)c1c2[nH]c(-c2ccncc2)c1Nc1ccccc1` (relative stereo) [Example 1, rel-(5R,7S)-6,6-Dimethyl-3-(phenylamino)-2-(pyridin-4-yl)-1,5,6,7-tetrahydro-4H-5,7-methanoindol-4-one], 6.84.
On to “1-Fluoro-N-4-[[(4aR,5aR) or (4aS,5aS)]-5a-methyl-4-oxo-3-(phenylamino)-1,4,4a,5,5a,6-hexahydrocyclopropa[f]indol-2-yl]pyridin-2-ylcyclopropanecarboxamide [Example 31]”, for which the pIC50 is 7.28.
As to `CCNC(=O)Nc1cc(-c2[nH]c3c(c2Nc2ccccc2)C(=O)[C@@H]2C[C@H]3C2(C)C)ccn1` (relative stereo) [Example 8, 1-4-[rel-(5R,7S)-6,6-Dimethyl-4-oxo-3-(phenylamino)-4,5,6,7-tetrahydro-1H-5,7-methanoindol-2-yl]pyridin-2-yl-3-ethylurea], the negative logarithm of the IC50 (pIC50) was 6.43.
`CC1(C)[C@@H]2C[C@H]1C(=O)c1c2[nH]c(-c2ccnc(N)c2)c1Nc1ccccc1` (relative stereo) [Example 2, rel-(5R,7S)-2-(2-Aminopyridin-4-yl)-6,6-dimethyl-3-(phenylamino)-1,5,6,7-tetrahydro-4H-5,7-methanoindol-4-one]: the pIC50 was 5.94.
“1-Methyl-N-4-[[(4aR,5aR) or (4aS,5aS)]-5a-methyl-4-oxo-3-(phenylamino)-1,4,4a,5,5a,6-hexahydrocyclopropa[f]indol-2-yl]pyridin-2-yl-1H-pyrazole-5-carboxamide [Example 43]”: the pIC50 was 7.66.
Then `Cc1ccc(=O)c2c(Nc3ccccc3)c(-c3ccnc(N)c3)[nH]c2c1` [Example 23, 2-(2-Aminopyridin-4-yl)-7-methyl-3-(phenylamino)cyclohepta[b]pyrrol-4(1H)-one], with 7.59; and `C[C@@]12Cc3[nH]c(-c4ccnc(NS(C)(=O)=O)c4)c(Nc4ccccc4)c3C(=O)[C@@H]1C2` (relative stereo) [Example 27, N-{4-[rel-(4aR,5aR)-3-Anilino-5a-methyl-4-oxo-1,4,4a,5,5a,6-hexahydrocyclopropa[f]indol-2-yl]pyridin-2-yl}methanesulfonamide], with 6.20; and “2-Fluoro-2-methyl-N-4-[[(4aS,5aS) or (4aR,5aR)]-5a-methyl-4-oxo-3-(phenylamino)-1,4,4a,5,5a,6-hexahydrocyclopropa[f]indol-2-yl]pyridin-2-ylpropanamide [Example 40]”, with 7.66.
Regarding `CC1(C)[C@@H]2C[C@H]1C(=O)c1c2[nH]c(-c2ccnc(NC(=O)NC3CC3)c2)c1Nc1ccccc1` (relative stereo) [Example 9, 1-cyclopropyl-3-4-[rel-(5R,7S)-6,6-Dimethyl-4-oxo-3-(phenylamino)-4,5,6,7-tetrahydro-1H-5,7-methanoindol-2-yl]pyridin-2-ylurea], the pIC50 was 6.62.
Take `CN1C[C@H]2C(=O)c3c([nH]c(-c4ccncc4)c3Nc3ccccc3)C[C@H]2C1=O` (relative stereo) [Example 11, rel-(4aR,7aS)-6-Methyl-3-(phenylamino)-2-(pyridin-4-yl)-1,4a,5,6,7a,8-hexahydropyrrolo[3,4-f]indole-4,7-dione]: the pIC50 was 7.72.
As to “2-Fluoro-2-methyl-N-4-[[(4aR,5aR) or (4aS,5aS)]-5a-methyl-4-oxo-3-(phenylamino)-1,4,4a,5,5a,6-hexahydrocyclopropa[f]indol-2-yl]pyridin-2-ylpropanamide [Example 41]”, the negative-log IC50 (pIC50) is 7.28.
Then “1-Methyl-N-4-[[(4aS,5aS) or (4aR,5aR)]-5a-methyl-4-oxo-3-(phenylamino)-1,4,4a,5,5a,6-hexahydrocyclopropa[f]indol-2-yl]pyridin-2-yl-1H-pyrazole-5-carboxamide [Example 42]”, with 7.96; and `C[C@@]12Cc3[nH]c(-c4ccncc4)c(Nc4ccccc4)c3C(=O)[C@@H]1C2` (relative stereo) [Example 16, rel-(4aR,5aR)-5a-Methyl-3-(phenylamino)-2-(pyridin-4-yl)-4a,5,5a,6-tetrahydrocyclopropa[f]indol-4(1H)-one], with 8.22; and `CC1CCC(=O)c2c([nH]c(-c3ccnc(N)c3)c2Nc2ccccc2)C1` (racemic) [Example 24, (7RS)-2-(2-Aminopyridin-4-yl)-7-methyl-3-(phenylamino)-5,6,7,8-tetrahydrocyclohepta[b]pyrrol-4(1H)-one], with 7.60.
As for “(5R,7S or 5S,7R)-2-(2-Aminopyridin-4-yl)-6,6-dimethyl-3-(phenylamino)-1,5,6,7-tetrahydro-4H-5,7-methanoindol-4-one [Example 3]”, the pIC50 was 6.19.
With “N-4-[[(7S) or (7R)]-7-Methyl-4-oxo-3-(phenylamino)-1,4,5,6,7,8-hexahydrocyclohepta[b]pyrrol-2-yl]pyridin-2-ylacetamide [Example 38]” the figure was 7.57.
